This note sets out measurements from ChEMBL document CHEMBL4364312, “Design, synthesis and biological evaluation of hydroxypyridinone-coumarin hybrids as multimodal monoamine oxidase B inhibitors and iron chelates against Alzheimer's disease” (Eur J Med Chem, 2019).

A short description of data set [1]: physchem. The following applies: DMSO:KCl.
Description: Dissociation constant, pKa2 of compound for 3-(or 5-) hydroxyl group in DMSO:KCl at 30 uM/L incubated for 1 min by UV-Vis spectrophotometry
Data set [2] concerns the target T1, Amine oxidase [flavin-containing] B (Homo sapiens, UniProt P27338).
T1 sequence (P27338 whole entry): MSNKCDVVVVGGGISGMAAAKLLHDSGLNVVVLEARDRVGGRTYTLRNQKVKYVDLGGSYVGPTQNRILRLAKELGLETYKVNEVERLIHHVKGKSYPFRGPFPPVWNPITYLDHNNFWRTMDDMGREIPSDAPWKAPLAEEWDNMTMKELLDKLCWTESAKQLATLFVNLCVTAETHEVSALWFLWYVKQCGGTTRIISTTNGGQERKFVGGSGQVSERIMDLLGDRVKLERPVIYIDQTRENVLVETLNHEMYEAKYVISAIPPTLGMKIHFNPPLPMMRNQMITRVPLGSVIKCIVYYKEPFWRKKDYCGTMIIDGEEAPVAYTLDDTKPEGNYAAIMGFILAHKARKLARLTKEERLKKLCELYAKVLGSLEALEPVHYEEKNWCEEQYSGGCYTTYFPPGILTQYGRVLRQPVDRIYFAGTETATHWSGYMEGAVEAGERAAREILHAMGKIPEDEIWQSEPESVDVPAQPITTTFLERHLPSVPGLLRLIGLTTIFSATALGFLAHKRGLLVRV
The following applies: 0.25 h, read-out: INH.
Description: Inhibition of recombinant human MAO-B expressed in baculovirus infected BTI insect cells at 10 uM incubated for 15 mins with substrate p-Tyramine by fluorescence assay relative to control

The nature of data set [3]: physchem. The following applies: DMSO:KCl. The source holds these as a separate data set.
Description: Dissociation constant, pKa1 of compound for protonation of the 4-oxo group in DMSO:KCl at 30 uM/L incubated for 1 min by UV-Vis spectrophotometry
For data set [4], the target named is T1, Amine oxidase [flavin-containing] B. In words: biochemical.
Description: Inhibition of recombinant human MAO-B expressed in baculovirus infected BTI insect cells incubated for 15 mins with substrate p-Tyramine by fluorescence assay
The test system of data set [5] is U-251. In words: Cytoprotective against H2O2-induced cell death in human U251 cells assessed as increase in cell viability at 100 uM preincubated for 24 hrs followed by H2O2 induction and measured after 1 hr by MTS assay (reference value: 50%). The format is functional. A general note: Formazan colour is commonly taken as a measure of viable cells.
A short description of data set [6]: Binding affinity to Fe3+ assessed as equilibrium binding constant logK3 in KCl pH 2 to 10.5 at […] 30 uM by UV-Vis spectrophotometric method.
The nature of data set [7]: Binding affinity to Fe3+ assessed as equilibrium binding constant logK2 in KCl pH 2 to 10.5 at 30 uM incubated for 20 mins by UV-Vis spectrophotometric method.
Data set [8] concerns Mus musculus. The data set is described as follows: Cognition enhancement in scopolamine-induced impairment in ICR mouse assessed as latency time at 10 mg/kg, ip administered once daily for 2 weeks pretreated with scopolamine for 30 mins and measured at 5th day of training session by Morris water maze test (reference value: 40.2 +/- 10.5 sec). The format is functional.
The test system of data set [9] is Mus musculus. In words: Cognition enhancement in scopolamine-induced impairment in ICR mouse assessed as distance to target at 10 mg/kg, ip administered once daily for 2 weeks pretreated with scopolamine for 30 mins and measured at 5th day of training session by Morris water maze test (reference value: 10.4 +/- 1.2 meter). The format is functional.
In data set [10] the test system is Mus musculus. The data set is described as follows: Cognition enhancement in scopolamine-induced impairment in ICR mouse assessed as number of times to enter target quadrant at 10 mg/kg, ip administered once daily for 2 weeks pretreated with scopolamine for 30 mins and measured at 5th day of training session by Morris water maze test (reference value: 9.0 +/- 0.8). The format is functional.

For data set [11], the system named is U-251. The data set is described as follows: Cytotoxicity against human U251 cells assessed as reduction in cell viability at 0.01 to 100 uM incubated for 24 hrs by MTS assay. The format is cell-based. The following applies: u-251, 24 h.

`COc1ccc2cc(Cn3ccc(=O)c(O)c3C)c(=O)oc2c1`: the pKa at 1 min, 30 µM in the data set “physchem [1]” is 9.66; in the data set “physchem [3]”, 3.13. For the same compound, the inhibition at 10 µM in data set [2] came out at 94.4%. Moreover, the IC50 (usually the concentration that inhibits the measured activity by half) in data set [4] was found to be 91.9 nM.
As for `Cc1cc(=O)c(O)cn1Cc1cc2ccc(OCc3cccc(F)c3)cc2oc1=O`, the pKa at 1 min, 30 µM is 8.99 in “physchem [1]” and 3.15 in “physchem [3]”. Further, the inhibition at 10 µM in [2] was 85.8%. The compound further came in with an IC50 in [4] of 193 nM.
As for `O=C1O[C@H]([C@@H](O)CO)C(O)=C1O` [ASCORBIC ACID], in the data set on U-251 [5], the Activity turned out to be 57.6%.
Regarding `COc1ccc2cc(Cn3cc(O)c(=O)cc3C)c(=O)oc2c1`, the results for the pKa at 1 min, 30 µM in the data set “physchem [1]” and in the data set “physchem [3]” were 9 and 3.15, respectively. In addition, in data set [2], the inhibition at 10 µM worked out at 38.3%.
Turning to `CCc1c(O)c(=O)ccn1Cc1cc2ccc(OCc3ccccc3)cc2oc1=O`, the results for the pKa at 1 min, 30 µM in the data set “physchem [1]” and in the data set “physchem [3]” were 9.71 and 3.11, respectively. The inhibition at 10 µM in [2] was 91.9%. Besides, the IC50 in data set [4] came out at 129 nM.
Take `CCc1c(O)c(=O)ccn1Cc1cc2ccccc2oc1=O`: the values for the pKa at 1 min, 30 µM in the data set “physchem [1]” and in the data set “physchem [3]” were 9.7 and 3.03, respectively. The inhibition at 10 µM in [2] is 25%.
`Cc1c(O)c(=O)ccn1C` [DEFERIPRONE]: the pKa at 1 min, 30 µM amounted to 9.89 in the data set “physchem [1]” and 3.65 in the data set “physchem [3]”. In addition, the figures for the logKb in data set [6] and in data set [7] were 37.3 and 27.7, respectively.
Take `Cc1cc(=O)c(O)cn1Cc1cc2ccccc2oc1=O`: the pKa at 1 min, 30 µM in “physchem [1]” turned out to be 8.97; in the data set “physchem [3]”, 3.14. In addition, the inhibition at 10 µM in data set [2] worked out at 6.8%.
`Cc1c(O)c(=O)ccn1Cc1cc2ccc(OCc3cccc(Cl)c3)cc2oc1=O`: the pKa at 1 min, 30 µM in “physchem [1]” is 9.67; in “physchem [3]”, 3.17. The inhibition at 10 µM in data set [2] amounted to 21.2%.
For the compound `Cc1cc(=O)c(O)cn1Cc1cc2ccc(OCc3ccccc3)cc2oc1=O`, the results for the pKa at 1 min, 30 µM in the data set “physchem [1]” and in the data set “physchem [3]” were 9.03 and 3.12, respectively. In addition, the inhibition at 10 µM in data set [2] turned out to be 86.5%. Further, in [4], 290 nM corresponded to half-maximal inhibition (IC50).
For the compound `Cc1cc(=O)c(O)cn1Cc1cc2ccc(OCc3ccc(F)cc3)cc2oc1=O`, the pKa at 1 min, 30 µM in “physchem [1]” is 8.87; in “physchem [3]”, 3.26. Also, the inhibition at 10 µM in data set [2] amounted to 87.6%. For the same compound, in data set [4], the IC50 turned out to be 145 nM.
With `Cc1cc(=O)c(O)cn1Cc1cc2ccc(OCc3cccc(Cl)c3)cc2oc1=O`, the pKa at 1 min, 30 µM in the data set “physchem [1]” worked out at 9.07; in the data set “physchem [3]”, 3.16. Besides, the inhibition at 10 µM in data set [2] came to 82%. In addition, the half-inhibitory concentration (IC50) in data set [4] was determined as 126 nM.
For `Cc1cc(=O)c(O)cn1Cc1cc2ccc(OCc3cc(F)cc(F)c3)cc2oc1=O`, the figures for the pKa at 1 min, 30 µM in “physchem [1]” and in “physchem [3]” were 8.95 and 3.11, respectively. For the same compound, in data set [2], the inhibition at 10 µM came out at 68.1%.
As to `Cc1c(O)c(=O)ccn1Cc1cc2ccc(OCc3ccccc3)cc2oc1=O`, the pKa at 1 min, 30 µM amounted to 9.61 in the data set “physchem [1]” and 3.11 in “physchem [3]”. The inhibition at 10 µM in data set [2] was 89.6%. In data set [4], it took 336 nM to reach half-maximal inhibition (IC50).
Consider `C#CCOc1ccc2cc(Cn3ccc(=O)c(O)c3C)c(=O)oc2c1`, for which the values for the pKa at 1 min, 30 µM in the data set “physchem [1]” and in the data set “physchem [3]” were 9.58 and 3.11, respectively. Further, the inhibition at 10 µM in data set [2] was 47.1%.
As for `CCc1c(O)c(=O)ccn1Cc1cc2ccc(OCc3cc(F)cc(F)c3)cc2oc1=O`, the pKa at 1 min, 30 µM in “physchem [1]” was 9.7; in “physchem [3]”, 3.08. Besides, in data set [2], the inhibition at 10 µM came out at 91.7%. The IC50 in data set [4] was determined as 223 nM.
As to `CCc1c(O)c(=O)ccn1Cc1cc2ccc(OCc3ccc(F)cc3)cc2oc1=O`, the pKa at 1 min, 30 µM in “physchem [1]” came out at 9.62; in “physchem [3]”, 3.15. Further, the inhibition at 10 µM in data set [2] stood at 91.6%. The same compound registered a 50% inhibitory concentration (IC50) in data set [4] of 163 nM.
As to `Cc1c(O)c(=O)ccn1Cc1cc2ccc(OCc3cccc(F)c3)cc2oc1=O`, the pKa at 1 min, 30 µM was 9.65 in “physchem [1]” and 3.1 in “physchem [3]”. In addition, in the data set on Mus musculus [8], the Time is reported as 9.6 s. Besides, the Activity in the data set with U-251 [5] was 57.8%; in the data set with Mus musculus [9], 4.2 m; with Mus musculus [10], 16.6; in the data set on U-251 [11], “Non-Toxic”. Moreover, the inhibition at 10 µM in [2] was 81.3%. Besides, in [4], the IC50 amounted to 14.7 nM.
`CCc1c(O)c(=O)ccn1Cc1cc2ccc(OC)cc2oc1=O`: the pKa at 1 min, 30 µM in the data set “physchem [1]” was found to be 9.7; in the data set “physchem [3]”, 3.09. Besides, the inhibition at 10 µM in [2] was 50.7%.
With `C#CCOc1ccc2cc(Cn3cc(O)c(=O)cc3C)c(=O)oc2c1`, the pKa at 1 min, 30 µM in the data set “physchem [1]” is 8.94; in the data set “physchem [3]”, 3.07. Also, the inhibition at 10 µM in data set [2] was determined as 50.6%.
Regarding `C#CCN(C)Cc1ccccc1` [PARGYLINE], in the data set with Mus musculus [8], the Time is on record as 5.6 s. The Activity in the data set with U-251 [5] came out at 61.5%; in the data set with Mus musculus [9], 6.6 m; in the data set on Mus musculus [10], 16.3.
As for `Cc1c(O)c(=O)ccn1Cc1cc2ccccc2oc1=O`, the pKa at 1 min, 30 µM in “physchem [1]” was determined as 9.68; in “physchem [3]”, 3.07. For the same compound, the inhibition at 10 µM in [2] amounted to 22.4%.
With `CCc1c(O)c(=O)ccn1Cc1cc2ccc(OCc3cccc(Cl)c3)cc2oc1=O`, the pKa at 1 min, 30 µM in the data set “physchem [1]” came out at 9.76; in the data set “physchem [3]” it was 3.1. Besides, in data set [2], the inhibition at 10 µM came out at 92.5%. The compound also came in with an IC50 in data set [4] of 425 nM.
On to `C#CCOc1ccc2cc(Cn3ccc(=O)c(O)c3CC)c(=O)oc2c1`, for which the pKa at 1 min, 30 µM turned out to be 9.63 in “physchem [1]” and 2.95 in “physchem [3]”. Also, in data set [2], the inhibition at 10 µM turned out to be 78.1%. Further, the IC50 in [4] stood at 121 nM.
On to `CCc1c(O)c(=O)ccn1Cc1cc2ccc(OCc3cccc(F)c3)cc2oc1=O`, for which the pKa at 1 min, 30 µM in the data set “physchem [1]” turned out to be 9.69; in the data set “physchem [3]”, 3.12. The inhibition at 10 µM in data set [2] came out at 91.9%. This compound also displayed an IC50 in [4] of 265 nM.
In the case of `Cc1c(O)c(=O)ccn1Cc1cc2ccc(OCc3cc(F)cc(F)c3)cc2oc1=O`, the results for the pKa at 1 min, 30 µM in the data set “physchem [1]” and in the data set “physchem [3]” were 9.54 and 3.1, respectively. Moreover, in data set [2], the inhibition at 10 µM is 67.5%.
